In patent US20070172957A1, “Methods of identifying anti-inflammatory macrolides” (TAISHO PHARMACEUTICAL CO., LTD., priority 2004, published 2007):

Test system: genes predictive for the anti-inflammatory macrolide effect
Test: Genes statistically predictive of Clari response: differentially expressed with Clari but not the inactive macrolides MAA or Josa (Appendix E)
Type: cell-based
Source text: In the case of the above-mentioned (i) related to arachidonic acid biosynthesis, specifically, methods of the embodiment involve assaying whether a test macrolide alters biosynthesis of arachidonic acid, alters the expression or activities of enzymes involved in the biosynthesis or activation of arachidonic acid (e.g., arachidonic acid CoA synthetase, delta-6 desaturase, fatty acid elongase, and delta-5 desaturase, AA-related genes in Tables 2 and 3), or alters the expression of genes identified as predictive for the anti-inflammatory macrolide effect (Appendix E). Assays in which arachidonic acid or gene expression or enzymatic activity is detected can be carried out after contacting a cell with a test macrolide. Any cell line that secretes prostaglandin or produces arachidonic acid can be used. Epithelial and macrophages lines (e.g., A549 or THP-1) are suitable for this purpose; other cell lines can be identified by carrying out assays such as those described in the specific Examples, below. Alternatively, screening assays can be carried out after adding a test macrolide to an in vitro cell system (e.g., a cellular extract or liver microsome preparation) or an in vitro enzyme assay system.

CC[C@H]1OC(=O)[C@H](C)[C@@H](O[C@H]2C[C@@](C)(OC)[C@@H](O)[C@H](C)O2)[C@H](C)[C@@H](O[C@@H]2O[C@H](C)C[C@H](N(C)C)[C@H]2O)[C@](C)(OC)C[C@@H](C)C(=O)[C@H](C)[C@@H](O)[C@]1(C)O [clarithromycin]
group mean, gene DDOST (SpotID 49757, MAA and Josa vs. Clari): 1.08 | group mean, gene BCL2L2 (SpotID 49761, MAA and Josa vs. Clari): 1.01 | group mean, gene AD022 (SpotID 49767, MAA and Josa vs. Clari): 1.12 | mean group, AD022 (SpotID 49767, pooled group mean): 1.10 | group mean, gene P4HB (SpotID 49781, MAA and Josa vs. Clari): 1.10 | group mean, gene CYC1 (SpotID 49787, MAA and Josa vs. Clari): 0.90 | mean group, CYC1 (SpotID 49787, pooled group mean): 0.94 | group mean, gene BCL2L2 (SpotID 49794, MAA and Josa vs. Clari): 1.01 | mean group, AD022 (SpotID 49800, pooled group mean): 1.09 | group mean, gene CDKN2C (SpotID 49815, MAA and Josa vs. Clari): 0.90 | group mean, gene CYC1 (SpotID 49820, MAA and Josa vs. Clari): 0.90 | group mean, gene LAMP2 (SpotID 49882, MAA and Josa vs. Clari): 1.17 | group mean, gene ATP2B4 (SpotID 49915, MAA and Josa vs. Clari): 1.03 | mean group, ATP2B4 (SpotID 49915, pooled group mean): 1.06 | group mean, gene DHCR24 (SpotID 49922, MAA and Josa vs. Clari): 1.27 | group mean, gene KIAA0169 (SpotID 49930, MAA and Josa vs. Clari): 0.95 | mean group, RFC1 (SpotID 49947, pooled group mean): 0.93 | group mean, gene CCNE2 (SpotID 49967, MAA and Josa vs. Clari): 0.82 | group mean, gene BMP6 (SpotID 49981, MAA and Josa vs. Clari): 1.10 | group mean, gene VTN (SpotID 49989, MAA and Josa vs. Clari): 0.90 | group mean, gene SRC (SpotID 49990, MAA and Josa vs. Clari): 1.17 | group mean, gene NFYC (SpotID 50011, MAA and Josa vs. Clari): 0.95 | mean group, HIF1A (SpotID 50022, pooled group mean): 0.93 | group mean, gene GNB2L1 (SpotID 50049, MAA and Josa vs. Clari): 1.10 | mean group, NDUFA2 (SpotID 50050, pooled group mean): 1.02 | group mean, gene MBTPS1 (SpotID 50067, MAA and Josa vs. Clari): 1.07 | group mean, gene SCOP (SpotID 50079, MAA and Josa vs. Clari): 1.05 | mean group, SCOP (SpotID 50079, pooled group mean): 1.04 | group mean, gene IDI1 (SpotID 50084, MAA and Josa vs. Clari): 1.32 | group mean, SpotID 50085 (gene symbol not given) (SpotID 50085, MAA and Josa vs. Clari): 1.00 | group mean, gene CNOT3 (SpotID 50099, MAA and Josa vs. Clari): 0.84 | mean group, CNOT3 (SpotID 50099, pooled group mean): 0.86 | group mean, gene IRF5 (SpotID 50103, MAA and Josa vs. Clari): 1.01 | group mean, gene RRBP1 (SpotID 50135, MAA and Josa vs. Clari): 1.11 | group mean, SpotID 50216 (gene symbol not given) (SpotID 50216, MAA and Josa vs. Clari): 1.05 | group mean, gene FLJ13868 (SpotID 50222, MAA and Josa vs. Clari): 1.06 | group mean, gene HK2 (SpotID 50224, MAA and Josa vs. Clari): 1.14 | mean group, IL10RB (SpotID 50267, pooled group mean): 1.08 | group mean, gene UQCR (SpotID 50284, MAA and Josa vs. Clari): 1.00 | group mean, gene TM7SF2 (SpotID 50294, MAA and Josa vs. Clari): 1.29 | group mean, gene CDR2 (SpotID 50302, MAA and Josa vs. Clari): 1.08 | group mean, gene MAX (SpotID 50307, MAA and Josa vs. Clari): 1.10 | group mean, gene BMP6 (SpotID 50319, MAA and Josa vs. Clari): 1.15 | group mean, gene DAD1 (SpotID 50332, MAA and Josa vs. Clari): 1.20 | group mean, gene FGFR2 (SpotID 50337, MAA and Josa vs. Clari): 1.08 | group mean, gene IKKE (SpotID 50342, MAA and Josa vs. Clari): 1.11 | mean group, IKKE (SpotID 50342, pooled group mean): 1.08 | group mean, gene LOC51295 (SpotID 50349, MAA and Josa vs. Clari): 0.78 | mean group, LOC51295 (SpotID 50349, pooled group mean): 0.84 | mean group, CFL1 (SpotID 50351, pooled group mean): 1.00 | group mean, gene TFAM (SpotID 50386, MAA and Josa vs. Clari): 0.91 | group mean, gene DGCR6L (SpotID 50399, MAA and Josa vs. Clari): 1.17 | group mean, gene CHERP (SpotID 50405, MAA and Josa vs. Clari): 0.87 | group mean, gene AGPAT1 (SpotID 50412, MAA and Josa vs. Clari): 1.12 | mean group, GOCAP1 (SpotID 50421, pooled group mean): 1.10 | group mean, gene SIGIRR (SpotID 50452, MAA and Josa vs. Clari): 1.10 | group mean, gene MMP15 (SpotID 50464, MAA and Josa vs. Clari): 1.10 | group mean, gene CEBPA (SpotID 50474, MAA and Josa vs. Clari): 1.29 | mean group, MGP (SpotID 50511, pooled group mean): 0.98 | group mean, gene ARHC (SpotID 50513, MAA and Josa vs. Clari): 1.02 | mean group, ARHC (SpotID 50513, pooled group mean): 1.00 | group mean, gene PRKCBP1 (SpotID 50532, MAA and Josa vs. Clari): 0.94 | group mean, gene PTPRT (SpotID 50550, MAA and Josa vs. Clari): 1.08 | mean group, BN51T (SpotID 50584, pooled group mean): 1.07 | mean group, CKS2 (SpotID 50590, pooled group mean): 0.89 | mean group, SpotID 50591 (SpotID 50591 (gene symbol not given), pooled group mean): 1.13 | group mean, SpotID 50591 (gene symbol not given) (SpotID 50591, MAA and Josa vs. Clari): 1.17 | mean group, SRP19 (SpotID 50601, pooled group mean): 1.06 | group mean, gene PDIR (SpotID 50639, MAA and Josa vs. Clari): 1.10 | group mean, gene PROS1 (SpotID 50643, MAA and Josa vs. Clari): 1.11 | mean group, BET1 (SpotID 50645, pooled group mean): 1.01 | group mean, gene COPB2 (SpotID 50654, MAA and Josa vs. Clari): 1.12 | group mean, gene MAX (SpotID 50659, MAA and Josa vs. Clari): 1.10 | group mean, gene GNB5 (SpotID 50689, MAA and Josa vs. Clari): 1.19 | group mean, gene PRKDC (SpotID 50736, MAA and Josa vs. Clari): 0.90 | mean group, PRKDC (SpotID 50736, pooled group mean): 0.92 | group mean, gene AD022 (SpotID 50738, MAA and Josa vs. Clari): 1.14 | mean group, AD022 (SpotID 50738, pooled group mean): 1.10
